Measurements from patent US20240173329A1, “BELVARAFENIB FOR USE IN TREATMENT OF BRAIN CANCERS” (Genentech, Inc., priority 2021, published 2024).

Assays:
Format in all cases: biochemical
[1] = target: RAF-1 (CRAF) (Homo sapiens, UniProt P04049); test: RAF kinase inhibition in vitro
[2] = target: T1, discoidin domain receptor tyrosine kinase 2 (DDR2) (Homo sapiens, UniProt Q16832); test: panel of 189 kinase assays
T1 sequence (Q16832 22-855): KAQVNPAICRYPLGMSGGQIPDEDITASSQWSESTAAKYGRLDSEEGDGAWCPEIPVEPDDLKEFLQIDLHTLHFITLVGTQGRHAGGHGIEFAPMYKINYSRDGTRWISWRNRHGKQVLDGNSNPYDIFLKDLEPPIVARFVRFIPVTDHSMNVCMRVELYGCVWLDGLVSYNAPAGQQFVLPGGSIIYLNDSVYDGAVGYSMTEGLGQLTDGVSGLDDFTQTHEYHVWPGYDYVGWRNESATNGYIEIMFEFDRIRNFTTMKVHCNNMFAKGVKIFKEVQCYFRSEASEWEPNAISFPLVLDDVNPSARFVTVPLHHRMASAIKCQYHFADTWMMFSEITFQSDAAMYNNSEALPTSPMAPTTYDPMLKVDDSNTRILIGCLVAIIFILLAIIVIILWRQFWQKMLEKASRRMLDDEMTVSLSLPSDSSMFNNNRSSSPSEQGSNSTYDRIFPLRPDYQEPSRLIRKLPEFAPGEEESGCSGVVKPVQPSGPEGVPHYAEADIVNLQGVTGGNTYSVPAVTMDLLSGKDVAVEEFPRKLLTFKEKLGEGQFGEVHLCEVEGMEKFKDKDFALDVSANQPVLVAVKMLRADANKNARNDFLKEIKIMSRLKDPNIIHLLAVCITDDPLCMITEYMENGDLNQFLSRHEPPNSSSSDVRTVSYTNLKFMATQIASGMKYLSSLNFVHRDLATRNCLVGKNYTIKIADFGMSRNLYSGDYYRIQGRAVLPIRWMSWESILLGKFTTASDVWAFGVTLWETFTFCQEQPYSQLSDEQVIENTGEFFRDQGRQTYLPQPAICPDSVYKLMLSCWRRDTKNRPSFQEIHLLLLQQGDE

[3] = target: EPHA2 (Homo sapiens, UniProt P29317); test: panel of 189 kinase assays
[4] = target: EPHA7 (Homo sapiens, UniProt Q15375); test: panel of 189 kinase assays
[5] = target: T2, EPHA8 (Homo sapiens, UniProt P29322); test: panel of 189 kinase assays
T2 sequence (P29322 28-1005): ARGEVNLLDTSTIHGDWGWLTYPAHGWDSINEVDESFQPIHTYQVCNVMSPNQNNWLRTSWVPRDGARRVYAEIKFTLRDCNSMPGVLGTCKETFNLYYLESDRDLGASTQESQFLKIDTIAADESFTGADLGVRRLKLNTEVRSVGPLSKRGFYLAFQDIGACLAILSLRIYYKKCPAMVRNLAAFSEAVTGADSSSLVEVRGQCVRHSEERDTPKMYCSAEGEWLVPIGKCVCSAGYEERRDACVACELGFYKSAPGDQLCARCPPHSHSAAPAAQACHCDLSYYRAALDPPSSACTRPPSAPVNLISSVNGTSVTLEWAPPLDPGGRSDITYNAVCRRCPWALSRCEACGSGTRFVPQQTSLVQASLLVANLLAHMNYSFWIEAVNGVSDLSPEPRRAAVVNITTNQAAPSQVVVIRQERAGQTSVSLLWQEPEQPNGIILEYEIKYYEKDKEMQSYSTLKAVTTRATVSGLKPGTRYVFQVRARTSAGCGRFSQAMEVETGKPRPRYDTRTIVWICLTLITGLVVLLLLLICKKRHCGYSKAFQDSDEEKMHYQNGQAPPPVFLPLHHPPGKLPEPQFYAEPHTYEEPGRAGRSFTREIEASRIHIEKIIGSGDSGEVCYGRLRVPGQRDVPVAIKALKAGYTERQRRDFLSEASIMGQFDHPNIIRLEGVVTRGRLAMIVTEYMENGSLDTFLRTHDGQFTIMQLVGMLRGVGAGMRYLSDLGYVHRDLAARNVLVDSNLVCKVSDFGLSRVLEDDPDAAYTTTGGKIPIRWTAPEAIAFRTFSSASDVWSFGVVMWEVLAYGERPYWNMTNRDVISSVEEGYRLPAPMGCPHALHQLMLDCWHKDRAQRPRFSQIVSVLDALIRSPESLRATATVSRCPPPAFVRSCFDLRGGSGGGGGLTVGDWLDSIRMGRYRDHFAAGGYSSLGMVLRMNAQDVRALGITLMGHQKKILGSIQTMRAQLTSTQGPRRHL

EPHA2, sequence (P29317 24-976, species assumed): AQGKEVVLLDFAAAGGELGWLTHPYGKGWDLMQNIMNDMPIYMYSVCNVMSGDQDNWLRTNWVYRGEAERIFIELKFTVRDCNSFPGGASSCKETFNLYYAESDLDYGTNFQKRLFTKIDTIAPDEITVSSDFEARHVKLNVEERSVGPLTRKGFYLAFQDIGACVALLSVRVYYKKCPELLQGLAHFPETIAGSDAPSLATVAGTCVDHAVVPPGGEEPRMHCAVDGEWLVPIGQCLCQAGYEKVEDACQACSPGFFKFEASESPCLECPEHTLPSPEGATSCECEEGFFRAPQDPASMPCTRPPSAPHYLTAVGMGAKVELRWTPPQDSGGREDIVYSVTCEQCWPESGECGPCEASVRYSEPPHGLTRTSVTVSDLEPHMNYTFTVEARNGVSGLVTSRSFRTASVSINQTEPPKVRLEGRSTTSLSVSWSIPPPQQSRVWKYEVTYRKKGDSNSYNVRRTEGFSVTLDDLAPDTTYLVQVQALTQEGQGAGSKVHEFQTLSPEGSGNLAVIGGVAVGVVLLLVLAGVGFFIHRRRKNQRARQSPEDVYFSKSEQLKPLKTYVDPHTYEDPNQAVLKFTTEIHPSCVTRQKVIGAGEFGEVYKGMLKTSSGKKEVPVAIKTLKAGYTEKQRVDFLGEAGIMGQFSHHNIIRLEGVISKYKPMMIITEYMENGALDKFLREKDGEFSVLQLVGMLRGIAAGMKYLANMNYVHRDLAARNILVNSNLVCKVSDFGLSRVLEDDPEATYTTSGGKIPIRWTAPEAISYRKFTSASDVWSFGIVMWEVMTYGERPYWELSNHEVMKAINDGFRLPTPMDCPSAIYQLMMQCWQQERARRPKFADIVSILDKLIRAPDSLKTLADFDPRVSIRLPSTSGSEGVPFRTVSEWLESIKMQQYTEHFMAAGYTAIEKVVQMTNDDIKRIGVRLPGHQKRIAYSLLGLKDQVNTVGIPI
RAF-1 (CRAF), sequence (P04049 whole entry, the tested form may be a part): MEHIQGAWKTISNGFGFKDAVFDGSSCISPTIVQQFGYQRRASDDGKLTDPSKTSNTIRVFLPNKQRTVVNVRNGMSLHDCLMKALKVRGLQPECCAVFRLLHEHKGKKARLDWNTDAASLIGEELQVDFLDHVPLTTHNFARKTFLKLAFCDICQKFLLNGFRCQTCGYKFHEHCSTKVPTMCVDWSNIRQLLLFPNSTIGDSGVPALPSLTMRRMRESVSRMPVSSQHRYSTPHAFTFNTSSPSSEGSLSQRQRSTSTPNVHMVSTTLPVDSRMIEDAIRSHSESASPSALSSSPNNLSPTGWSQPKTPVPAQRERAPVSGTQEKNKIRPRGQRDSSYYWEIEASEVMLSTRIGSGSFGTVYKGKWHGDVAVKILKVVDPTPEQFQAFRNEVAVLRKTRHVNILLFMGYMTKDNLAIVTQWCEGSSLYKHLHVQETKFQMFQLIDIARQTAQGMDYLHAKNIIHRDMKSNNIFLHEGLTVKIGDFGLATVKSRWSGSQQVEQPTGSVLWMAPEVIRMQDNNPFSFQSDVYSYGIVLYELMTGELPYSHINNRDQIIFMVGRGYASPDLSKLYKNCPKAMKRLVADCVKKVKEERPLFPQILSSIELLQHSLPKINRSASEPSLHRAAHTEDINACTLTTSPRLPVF
EPHA7, sequence (Q15375 28-998, species assumed): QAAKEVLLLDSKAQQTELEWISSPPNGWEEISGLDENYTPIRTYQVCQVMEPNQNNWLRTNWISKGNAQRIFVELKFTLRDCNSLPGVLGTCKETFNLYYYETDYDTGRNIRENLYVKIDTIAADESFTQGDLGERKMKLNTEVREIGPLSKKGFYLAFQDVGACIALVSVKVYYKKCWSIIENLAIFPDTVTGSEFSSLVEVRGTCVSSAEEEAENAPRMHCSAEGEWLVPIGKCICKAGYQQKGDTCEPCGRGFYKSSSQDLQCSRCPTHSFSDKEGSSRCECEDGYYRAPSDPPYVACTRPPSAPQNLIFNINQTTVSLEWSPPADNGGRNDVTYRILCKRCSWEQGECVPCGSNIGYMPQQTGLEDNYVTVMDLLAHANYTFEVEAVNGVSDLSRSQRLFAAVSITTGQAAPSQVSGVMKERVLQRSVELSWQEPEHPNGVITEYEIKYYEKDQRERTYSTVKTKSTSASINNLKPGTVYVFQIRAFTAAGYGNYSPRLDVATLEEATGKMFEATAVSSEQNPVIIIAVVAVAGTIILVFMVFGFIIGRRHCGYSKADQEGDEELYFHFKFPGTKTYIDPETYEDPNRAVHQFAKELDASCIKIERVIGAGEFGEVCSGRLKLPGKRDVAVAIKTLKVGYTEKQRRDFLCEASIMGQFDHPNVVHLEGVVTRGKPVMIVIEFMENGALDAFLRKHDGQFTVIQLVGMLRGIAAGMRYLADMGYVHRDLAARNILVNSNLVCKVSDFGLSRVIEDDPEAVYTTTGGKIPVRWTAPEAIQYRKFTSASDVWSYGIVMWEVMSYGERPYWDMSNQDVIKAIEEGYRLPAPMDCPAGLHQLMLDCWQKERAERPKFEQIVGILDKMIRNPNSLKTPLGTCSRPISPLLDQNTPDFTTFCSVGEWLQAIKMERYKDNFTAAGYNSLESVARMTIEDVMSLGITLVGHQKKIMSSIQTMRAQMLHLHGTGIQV

Cc1ccc2c(Nc3cccc(Cl)c3F)nccc2c1NC(=O)c1csc2c(N)ncnc12 [Belvarafenib, 4-amino-N-(1-((3-chloro-2-fluorophenyl)amino)-6-methylisoquinolin-5-yl)thieno[3,2-d]pyrimidine-7-carboxamide]
IC50 [1]: 2 nM | inhibition at 1 µM [2]: > 90% | inhibition at 1 µM [3]: > 90% | inhibition at 1 µM [4]: > 90% | inhibition at 1 µM [5]: > 90%
